Common to all, as to assay type: cell-based
One assay deals with T1, human SGLT1 (Homo sapiens, UniProt P13866).
T1 sequence (P13866 1-664): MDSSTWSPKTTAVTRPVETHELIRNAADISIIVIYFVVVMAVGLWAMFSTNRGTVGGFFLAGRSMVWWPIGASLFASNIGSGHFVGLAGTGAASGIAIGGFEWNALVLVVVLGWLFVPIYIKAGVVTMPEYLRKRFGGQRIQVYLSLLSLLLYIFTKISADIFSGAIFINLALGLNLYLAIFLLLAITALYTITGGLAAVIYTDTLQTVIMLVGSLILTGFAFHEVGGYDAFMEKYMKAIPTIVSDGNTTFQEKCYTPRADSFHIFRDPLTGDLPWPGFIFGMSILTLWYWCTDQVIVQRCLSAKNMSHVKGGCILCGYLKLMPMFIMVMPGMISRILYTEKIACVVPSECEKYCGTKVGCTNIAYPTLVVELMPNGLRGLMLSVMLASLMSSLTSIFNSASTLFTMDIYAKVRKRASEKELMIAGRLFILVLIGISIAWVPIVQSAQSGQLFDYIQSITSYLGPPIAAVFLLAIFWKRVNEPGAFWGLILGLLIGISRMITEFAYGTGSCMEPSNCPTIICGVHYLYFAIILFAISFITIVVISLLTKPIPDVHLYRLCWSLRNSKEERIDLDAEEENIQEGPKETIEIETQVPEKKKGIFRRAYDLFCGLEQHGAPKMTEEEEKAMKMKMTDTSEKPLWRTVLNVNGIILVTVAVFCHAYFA
The assay can be described thus: Sodium-dependent 14C-AMG uptake in CHO-K1 cells expressing human SGLT1. The text has this: (§1) The cDNA encoding human SGLT1 (slc5a1, NM_000343), human SGLT2 (slc5a2, NM_003041) and mouse SGLT1 (slc5a1, NM_019810.4) are purchased from Openbiosystems, Invitrogen and Openbiosystems, respectively. The cDNA is cloned into pcDNA3.1+ for mammalian expression and is stably transfected into Chinese hamster ovary (CHO)-K1 cells using standard mammalian transfection procedures. An SGLT-expressing sub-clone of each over-expressing cell line is selected based on resistance to neomycin (Geneticin, Invitrogen) and activity in the ^14C-α-methyl-D-glucopyranoside (^14C-AMG) uptake assay (see below). Stable SGLT-expressing cells are maintained using standard cell culture techniques.
(§2) The SGLT activity is measured as sodium-dependent ^14C-AMG uptake in the above cell lines described as follows. One hundred μL of culture medium containing 30,000 cells are seeded to each well of a 96-well BioCoat poly-D-lysine plate (Becton Dickson) and cultured at 37° C. overnight. The culture medium is aspirated and cells are washed twice with 200 μL of Reaction Buffer (140 mM NaCl, 2 mM KCl, 1 mM CaCl2, MgCl2, and 14 mM N-2-hydroethylpiperrazine-N′-2-ethanesulfonic acid (Hepes), pH 7.5). The excess buffer is tapped out onto paper towels. Thirty-five μL of Reaction Buffer are added to each well. […] After mixing, the scintillation signal in the plate is counted in a MicroBeta (PerkinElmer). […]

The target of another assay is T2, human SGLT2 (Homo sapiens, UniProt P31639).
T2 sequence (P31639 1-672): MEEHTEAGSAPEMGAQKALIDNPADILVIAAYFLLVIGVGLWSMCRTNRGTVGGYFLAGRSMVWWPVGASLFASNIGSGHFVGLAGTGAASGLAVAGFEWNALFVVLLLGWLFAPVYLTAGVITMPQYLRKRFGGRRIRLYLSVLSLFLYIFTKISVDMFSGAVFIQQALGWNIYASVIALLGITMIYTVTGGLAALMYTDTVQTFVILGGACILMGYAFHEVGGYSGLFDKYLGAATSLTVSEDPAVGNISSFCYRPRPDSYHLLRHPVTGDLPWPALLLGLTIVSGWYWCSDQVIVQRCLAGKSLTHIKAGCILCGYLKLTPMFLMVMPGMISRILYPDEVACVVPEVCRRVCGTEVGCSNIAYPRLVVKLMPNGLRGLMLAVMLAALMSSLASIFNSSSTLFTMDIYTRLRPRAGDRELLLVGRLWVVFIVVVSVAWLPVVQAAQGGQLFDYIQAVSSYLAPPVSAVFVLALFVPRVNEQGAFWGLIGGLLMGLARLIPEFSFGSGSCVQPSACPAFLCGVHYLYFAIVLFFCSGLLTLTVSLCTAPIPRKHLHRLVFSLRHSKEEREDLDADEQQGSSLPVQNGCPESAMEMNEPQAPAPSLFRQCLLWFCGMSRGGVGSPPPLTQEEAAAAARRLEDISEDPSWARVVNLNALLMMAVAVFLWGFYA
The assay is described as follows: Sodium-dependent 14C-AMG uptake in CHO-K1 cells expressing human SGLT2. The settings on record: n = 10.
From the text: as §1, §2

Another assay deals with T3, mouse SGLT1 (Mus musculus, UniProt Q8C3K6).
T3 sequence (Q8C3K6 1-665): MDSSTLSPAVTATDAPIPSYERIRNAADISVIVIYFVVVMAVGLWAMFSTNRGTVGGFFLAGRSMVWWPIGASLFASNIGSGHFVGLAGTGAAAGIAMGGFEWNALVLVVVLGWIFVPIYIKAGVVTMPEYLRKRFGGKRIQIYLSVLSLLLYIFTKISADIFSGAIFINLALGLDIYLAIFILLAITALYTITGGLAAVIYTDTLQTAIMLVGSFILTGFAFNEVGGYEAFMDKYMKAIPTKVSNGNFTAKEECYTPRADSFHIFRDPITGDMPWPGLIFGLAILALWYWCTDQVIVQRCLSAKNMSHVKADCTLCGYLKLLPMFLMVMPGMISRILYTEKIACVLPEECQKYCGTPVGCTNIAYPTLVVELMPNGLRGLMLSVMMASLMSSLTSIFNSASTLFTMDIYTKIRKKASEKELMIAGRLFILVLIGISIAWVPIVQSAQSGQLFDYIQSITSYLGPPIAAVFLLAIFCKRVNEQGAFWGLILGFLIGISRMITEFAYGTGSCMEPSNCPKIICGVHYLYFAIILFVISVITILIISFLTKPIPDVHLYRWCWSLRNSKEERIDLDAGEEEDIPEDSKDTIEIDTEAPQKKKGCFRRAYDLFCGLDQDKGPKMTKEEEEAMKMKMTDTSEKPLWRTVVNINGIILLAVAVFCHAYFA
The assay can be described thus: Sodium-dependent 14C-AMG uptake in CHO-K1 cells expressing mouse SGLT1. The settings on record: n = 9.
From the text: as §1, §2

Consider `Cc1cc(/C=C/CCN2CCCC3(CCNCC3)C2)ccc1Cc1c(O[C@@H]2O[C@H](CO)[C@@H](O)[C@H](O)[C@H]2O)n[nH]c1C(C)C` [Example 1 (free base), 4-{4-[(1E)-4-(2,9-diazaspiro[5.5]undec-2-yl)but-1-en-1-yl]-2-methylbenzyl}-5-(propan-2-yl)-1H-pyrazol-3-yl beta-D-glucopyranoside], for which the IC50 against human SGLT1 (14C-AMG uptake, CHO-K1 cells, n = 10) came to 26 ± 20 nM; at human SGLT2, 6100 ± 1200 nM; against mouse SGLT1 it was 10 ± 2 nM. Moreover, the “Potency at SGLT1 relative to human SGLT2” value on human SGLT1 (in vitro, from Table 2) is “more potent at human and mouse SGLT1 than at human SGLT2”.

As usually defined, the IC50 is the concentration needed to halve the response being measured.

These data come from patent US9573970B2, “4-{4-[(1E)-4-(2,9-diazaspiro[5.5]undec-2-yl)but-1-en-1-yl]-2-methylbenzyl}-5-(propan-2-yl)-1H-pyrazol-3-yl beta-D glucopyranoside acetate” (Eli Lilly and Company, priority 2013, dated 2017).
